In US6838574B1, “Dicarba-closo-dodecarborane derivatives” (Institute of Medicinal Molecular Design, Inc., priority 1999, dated 2005):

Molecular target: T1, rat estrogen receptor (pCI-rER α) (Rattus norvegicus, UniProt P06211)
T1 construct: expressed in transfected cells; host or cells: COS-1 cells
T1 sequence (P06211 1-600): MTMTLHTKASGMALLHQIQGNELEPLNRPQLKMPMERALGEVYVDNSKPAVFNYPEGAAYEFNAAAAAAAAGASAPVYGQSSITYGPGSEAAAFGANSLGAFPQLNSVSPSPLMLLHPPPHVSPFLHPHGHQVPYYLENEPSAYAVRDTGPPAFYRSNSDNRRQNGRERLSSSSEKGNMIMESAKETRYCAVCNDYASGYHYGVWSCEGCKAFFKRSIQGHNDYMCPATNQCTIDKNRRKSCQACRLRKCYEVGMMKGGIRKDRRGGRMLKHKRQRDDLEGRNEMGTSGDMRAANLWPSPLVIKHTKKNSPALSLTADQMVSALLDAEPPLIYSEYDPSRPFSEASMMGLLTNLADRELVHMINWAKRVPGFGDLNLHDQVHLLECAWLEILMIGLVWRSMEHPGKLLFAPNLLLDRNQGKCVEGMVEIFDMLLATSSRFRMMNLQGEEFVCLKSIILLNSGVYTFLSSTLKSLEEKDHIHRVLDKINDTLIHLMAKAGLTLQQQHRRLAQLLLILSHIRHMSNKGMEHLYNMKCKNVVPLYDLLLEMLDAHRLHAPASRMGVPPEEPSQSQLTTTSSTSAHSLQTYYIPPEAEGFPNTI
Assay: Estrogenic activity, estrogen receptor-dependent luciferase reporter gene assay in COS-1 cells
Type: cell-based
Details: for Relative Activity (%) at the Same Amount of β-estradiol: β-estradiol = 100; for EC50: 50% of luciferase activity of β-estradiol at 10 nM (=100), COS-1
Protocol: As estrogenic activity, estrogen receptor-dependent transcriptional activation abilities of the test compounds were determined by the r porter gene assay using luciferase gene. COS-1 cells were cultured using a DMEM medium containing an antibiotics and 5% bovine fetal serum in the wells of 24 well plates (cell density: 5 to 6×10^4/well) at 37° C. for one night under 5% carbon dioxide. On the next day, the medium was changed to DMEM medium not containing Phenol Red. Using gene introducing reagent Tfx-20 (Promega), reporter plasmid EREx3-pGL-TK, in which rat estrogen receptor expression plasmid pCI-rER α and an estrogen responsive sequence were placed upstream of the luciferase gene, and β-galactosidase expression plasmid pCMV β used as an internal standard were introduced into cells. The cells were cultured for 2 h, and the medium was changed to DMEM not containing Phenol Red but containing active charcoal-treated serum.
The culture was added with each test compound dissolved in ethanol at various concentrations (final ethanol concentration at 0.5%) and then cultivation was continued at 37° C. for one night under 5% carbon dioxide. On the next day, the cells were lysed and enzymatic activity of luciferase expressed was measured by using a chemiluminometer. The values were standardized based on galactocidase enzymatic activity, and then compared with the values obtained by experiments using no test compound and used as values of activity at various concentrations. […] The estrogenic activities in the table are shown as concentrations for 50% activity (EC50 values) which give 50% activities relative to luciferase activity regarded as 100 that is expressed by treatment with the control compound β-estradiol at 10 nM. Each compound tested in this experiment has a high estrogenic activity.
Estrogenic activities, i.e., estrogen receptor-dependent transcriptional abilities of test compounds, were determined by the reporter gene assay using the luciferase gene in the same manner as those described above. In this experiment (Table 6), estrogenic activities at 0.1 nM, 1 nM, and 10 nM of the test compounds are shown as relative values in view of the luciferase activity regarded as 100 which is expressed at the same amounts of β-estradiol as a control, and intensities of activities were compared. Each compound tested in this experiment has high estrogenic activity.

[1] = relative activity experiment (Table 6)

Row | Substance | Relative Activity (%) at the Same Amount of β-estradiol (0.1 nM) | Relative Activity (%) at the Same Amount of β-estradiol (1 nM) | Relative Activity (%) at the Same Amount of β-estradiol (10 nM) | EC50 | estrogenic activity compared with β-estradiol (in words) (EC50 experiment (Table 5)) | estrogenic activity compared with β-estradiol (in words) [1]
1 | 1-hydroxymethyl-12-(4-hydroxyphenyl)-1,12-dicarba-closo-dodecaborane [BE120] | 212% | 163% | 126% | 0.05 nM | much higher activity than that of β-estradiol | much higher activities than that of β-estradiol
2 | 1-(2-hydroxyethyl)-12-(4-(hydroxyphenyl)-1,12-dicarba-closo-dodecaborane [BE122] | 83% | 98% | 104% |  |  | 
3 | 1-(3-hydroxyphenyl)-1,7-dicarba-closo-dodecaborane [BE400] |  | 11% | 38% |  |  | 
4 | 1-hydroxy-7-(3-hydroxyphenyl)-1,7-dicarba-closo-dodecaborane [BE419] |  | 14% | 38% |  |  | 
5 | 1-(2-hydroxyethyl)-7-(3-hydroxyphenyl)-1,7-dicarba-closo-dodecaborane [BE422] |  | 11% | 24% |  |  | 
6 | 1-methoxycarbonyl-12-(4-hydroxyphenyl)-1,12-dicarba-closo-dodecaborane [BE110] |  |  |  | 2 nM |  | 
7 | 1-(3-hydroxypropyl)-12-(4-hydroxyphenyl)-1,12-dicarba-closo-dodecaborane [BE123] | 29% | 56% | 79% |  |  | 
8 | 1-(2-hydroxymethyl)-7-(3-hydroxyphenyl)-1,7-dicarba-closo-dodecaborane [BE420] |  | 18% | 59% |  |  | 
9 | 1-hydroxy-7-(4-hydroxyphenyl)-1,7-dicarba-closo-dodecaborane [BE219] |  | 40% | 71% |  |  | 
10 | 1-(4-hydroxyphenyl)-1,12-dicarba-closo-dodecaborane [BE100] | 51% | 63% | 82% | 0.7 nM | much higher activity than that of β-estradiol | 
11 | 1-hydroxy-12-(3-hydroxy phenyl)-1,12-dicarba-closo-dodecaborane [BE319] |  | 53% | 72% |  |  | 
12 | 1-(2-hydroxyethyl)-12-(3-hydroxyphenyl)-1,12-dicarba-closo-dodecaborane [BE322] |  | 43% | 85% |  |  | 
13 | 1,7-bis(4-hydroxyphenyl)-1,7-dicarba-closo-dodecaborane [BE260] |  |  |  | 1 nM |  | 
14 | 1-hydroxyethyl-12-(4-hydroxyphenyl)-1,12-dicarba-closo-dodecaborane [BE121] |  |  |  | 1 nM | much higher activity than that of β-estradiol | 
15 | 1-(2-hydroxyethyl)-7-(4-hydroxyphenyl)-1,7-dicarba-closo-dodecaborane [BE222] |  | 38% | 85% |  |  | 
16 | 1-(3-hydroxyphenyl)-1,12-dicarba-closo-dodecaborane [BE300] |  | 20% | 59% |  |  | 
17 | 1-hydroxy-12-(4-hydroxyphenyl)-1,12-dicarba-closo-dodecaborane [BE119] | 133% | 132% | 120% |  |  | much higher activities than that of β-estradiol
18 | 1,12-bis(4-hydroxyphenyl)-1,12-dicarba-closo-dodecaborane [BE160] |  |  |  | 1 nM |  | 
19 | 1-(2-hydroxymethyl)-12-(3-hydroxyphenyl)-1,12-dicarba-closo-dodecaborane [BE320] | 116% | 127% | 127% |  |  | much higher activities than that of β-estradiol
20 | 1-(3-hydroxypropyl)-12-(3-hydroxyphenyl)-1,12-dicarba-closo-dodecaborane [BE323] |  | 12% | 31% |  |  | 
21 | 1-amino-12-(4-hydroxyphenyl)-1,12-dicarba-closo-dodecaborane [BE140] |  |  |  | 0.5 nM | much higher activity than that of β-estradiol | 
22 | 1-hydrocarbonyl-12-(4-hydroxyphenyl)-12-dicarba-closo-dodecaborane [BE130] |  |  |  | 10 nM |  | 
23 | 1-(4-hydroxyphenyl)-1,7-dicarba-closo-dodecaborane [BE200] |  | 45% | 72% | 2 nM |  | 
24 | 1-(3-hydroxypropyl)-7-(4-hydroxyphenyl)-1,7-dicarba-closo-dodecaborane [BE223] |  | 20% | 51% |  |  | 
25 | 1-(3-hydroxypropyl)-7-(3-hydroxyphenyl)-1,7-dicarba-closo-dodecaborane [BE423] |  | <10% | 15% |  |  | 
